The source of these data is article PMC8156206, “Novel N,N′-Disubstituted Selenoureas as Potential Antioxidant and Cytotoxic Agents” (Antioxidants, 2021).

Where two headings read alike, the source gives them in different places. Where only a bound is given, the exact number is not on record here.

Data set [1] concerns HT-29 cells (colon carcinoma). In words: MTT cell viability assay, HT-29. The conditions noted are these: Homo sapiens; for IC50: read-out: IC50 HT-29 (colon); for viability at 10 µM / viability at 50 µM: read-out: cell viability, percentage of live cells. It is filed as cell-based. The method, then:
(§1) Cell lines were purchased from the American Type Culture Collection (ATCC). MCF-7, HTB-54, BEAS-2B and 184B5 cell lines were grown in RPMI 1640 medium (Gibco) supplemented with 10% fetal bovine serum (FBS; Gibco), 100 units/mL penicillin, and […] streptomycin (Gibco). HT-29 and HCT-116 cell lines was cultured in McCoy’s 5A (Gibco), 10% FBS, 100 units/mL penicillin, and 100 μg/mL streptomycin. Cells were maintained at 37 °C and 5% CO2. Culture medium was replaced every three days.
(§2) A cell viability assay of each compound was carried out using an MTT assay. Each selenourea was dissolved in dimethyl sulfoxide (DMSO) at a concentration of 0.01 M. Serial dilutions were prepared with non-supplemented culture medium. Cytotoxic activity of each selenourea was determined at two different concentrations (10 and 50 µM) in MCF-7, HTB-54, and HT-29 cells. In addition, selected compounds were tested at seven different concentrations (0.1, 1, 5, 10, 25, 50, 100 µM) on MCF-7, HT-29, HCT-116, HTB-54, 184B5, and BEAS-2B cells. The number of passages before defrosting the cells was 3, and they were kept under culture up to a maximum of 15.
(§3) Briefly, 1 × 10^4 cells/well were grown in 96-well plates for 24 h. Then, these cells were incubated with either DMSO (negative control) at 5 µM or a different concentration of each tested selenourea for 48 h. A volume of 20 µL of MTT was added 150 min before the termination point to measure cellular viability. After this time, culture medium was removed. The resultant formazan crystals were dissolved in 50 µL of DMSO, and absorbance was measured at 570 nm. Results are expressed as IC50, the half maximal inhibitory concentration. This value was calculated using GraphPad Prism 7 software by nonlinear curve fitting. Furthermore, the selectivity index (SI) was calculated as the ratio of the IC50 values determined for the non-malignant and the tumoral cells (IC50 (184B5)/IC50 (MCF-7) or (IC50 (BEAS-2B)/IC50 (HTB-54). Data were obtained from at least three independent experiments performed in triplicates.
(§4) The cytotoxic effects of synthesized compounds were evaluated against three human cancer cell lines: breast adenocarcinoma (MCF-7), lung adenocarcinoma (HTB-54), and colon carcinoma (HT-29), using a 3-[4,5-dimethylthiazol-2-yl]-2,5-diphenyltetrazolium bromide (MTT) assay. Firstly, the compounds were screened at two doses (50 and 10 µM) and after 48 h of treatment. The results are summarized in Figure 4 and are presented as percentages of growth inhibition related to control.
Background: Tetrazolium dyes change colour on reduction, which living cells bring about.

Data set [2] relates to MCF-7 cells (breast adenocarcinoma). In words: MTT cell viability assay, MCF-7. Conditions: for IC50 / viability at 10 µM / viability at 50 µM: Homo sapiens; for IC50: read-out: IC50 MCF-7 (breast); for viability at 10 µM / viability at 50 µM: read-out: cell viability, percentage of live cells; for SI (selectivity index) breast: IC50 (184B5)/IC50 (MCF-7). The format is cell-based, human. The method, then: as §1, §2, §3, §4

Data set [3] deals with 184B5 cells (breast non-malignant derived cell line). In words: MTT cell viability assay, 184B5. It is filed as cell-based. Conditions: Homo sapiens, read-out: IC50 184B5 (breast, non-malignant). How it is done: as §1, §2, §3
Data set [4] can be described thus: DPPH radical scavenging assay. How it is done:
(§5) From all the methods available for the prediction of the antioxidant properties, DPPH^● and ABTS^●+ assays were chosen according to their simplicity, accessibility, and effectiveness for a fast prediction of radical scavenging activities in vitro. The radical scavenging capacity of the novel selenoureas was determined by DPPH^● and ABTS^●^+ assays. Measurements were recorded on a BioTeck PowerWave XS spectrophotometer (BioTeck Instruments, Winooski (VT), USA) and the data were collected using KCJunior software (BioTeck Instruments, Winooski (VT), USA).
A DPPH assay was performed, as described by Svinyarov. Stock solutions of 1 mg/mL were initially prepared for each selenourea in methanol and this solution was used for the preparation of the different concentrations employed in the assay. Ascorbic acid (Asc) was used as positive control due to the literature reports that this derivative is a potent antioxidant and radical scavenger. A volume of 100 µL from a previously prepared stock solution (preserved in dark and daily prepared) of DPPH (100 µM) in methanol were added to 100 µL of the methanolic selenoureas solutions prepared previously, and the antioxidant activity these compounds was assessed by its ability to decolorize DPPH● radical (purple color in methanol) to DPPHH (colorless). Thus, radical scavenging activity was estimated by the decrease in the absorbance at 517 nm. Determinations were recorded at different time-points. All the measurements were carried out in triplicate. Results are expressed as the percentage of the radicals scavenged, calculated using the following formula:(1) % DPPH radical scavenging=Acontrol − Asample/Acontrol × 100 where Acontrol refers to the absorbance of the negative control and Asample refers to the absorbance of the tested compounds. Results are expressed as percentage of DPPH radical scavenging ± SD.
In order to determine the radical scavenging of these newly synthesized selenourea derivatives, the DPPH assay was firstly employed. Measurements were performed at four different concentrations ranging from 0.0003 to 0.03 mg/mL, and collected at time-points between 0 min and 120 min (Figures S81–S100). Results are presented as the percentage of inhibition for DPPH radical scavenging activity.
A general note: Loss of DPPH colour is used to gauge radical scavenging.

Data set [5] deals with HTB-54 cells (lung adenocarcinoma). The data set is described as follows: MTT cell viability assay, HTB-54. The conditions noted are these: for IC50 / viability at 10 µM / viability at 50 µM: Homo sapiens; for IC50: read-out: IC50 HTB-54 (lung); for viability at 10 µM / viability at 50 µM: read-out: cell viability, percentage of live cells. It is filed as cell-based, human. How it is done: as §1, §2, §3, §4

The test system of data set [6] is BEAS-2B cells (lung non-malignant derived cell line). The data set is described as follows: MTT cell viability assay, BEAS-2B. The format is cell-based. Conditions: Homo sapiens, 48 h, mean ± SD. The method, then:
as §1, §2, §3

Data set [7] can be described thus: Stability of the selenoureas before screening. The format is physicochemical.
In another data set the test system is HCT-116 cells (colon). The data set is described as follows: MTT cell viability assay, HCT-116. It is filed as cell-based. The conditions noted are these: Homo sapiens, HCT-116, 48 h, read-out: IC50 HCT-116 (colon). The method, then:
as §1, §2, §3

The nature of data set [8]: ABTS radical scavenging assay. Conditions: 0.003 mg/mL, 60 min. The method, then: as §5
As well as DPPH, ABTS radical scavenging assay is a colorimetric method. ABTS (2,2′-azino-bis(3-ethylbenzothiazoline-6-sulfonic acid) was dissolved in deionized water at 1 mg/mL and oxidized to ABTS^●+ with potassium persulfate (2.45 mM final concentration). This oxidation process is not instantaneous, and the reaction mixture was kept in the dark overnight at room temperature. After ABTS^●+ radical was generated, the ABTS^●+ solution was diluted with 50% ethanol until an absorbance of 0.70 ± 0.02 at 734 nm for measurements was achieved. Stock solution of 1 mg/mL in absolute ethanol was prepared for each selenourea, and different dilutions were prepared to reach the final concentration, when 20 µL of this solution were added to 180 µL of the diluted ABTS^●+. The absorbance at 734 nm was recorded using 50% ethanol as blank. Trolox and Asc were used as positive controls. All determinations were carried out in triplicate. Same time intervals as in the DPPH assay were also measured. The ability to scavenge ABTS^●+ was calculated using the following formula:(2) % ABTS radical scavenging=Acontrol − Asample/Acontrol × 100 where Acontrol refers to the absorbance of the negative control and Asample refers to the absorbance of the tested compounds. The results are expressed as percentage of ABTS radical scavenging ± SD.
In order to confirm the antioxidant activity of the selenoureas, we performed an additional ABTS (2,2′-azino-bis(3-ethylbenzothiazoline-6-sulfonic acid) radical scavenging assay. Following the results obtained in the DPPH assay, this experiment was performed at 0.03 and 0.003 mg/mL. Measurements were recorded after 0′, 6′ and 60′ of incubation with ABTS. For comparison purposes, Trolox and ascorbic acid were used as references. The remarkable results are summarized in Figure 3.

The term IC50 denotes the concentration that inhibits the measured activity by half. In general, viability refers to a per cent measure of how many cells are alive, often set against a control. The term melting point denotes the temperature of the solid-liquid transition. As for `[Se]=C(NCc1nccs1)Nc1ccccc1` [Compound 2a], the melting point is 149 °C. Further, the half-inhibitory concentration (IC50) in [1] (HT-29, 48 h, MTT, mean ± SD) is over 10 µM. In [1] (HT-29, 10 µM, 48 h, MTT), the viability at 10 µM came to 79.7%. Also, the viability at 50 µM in data set [1] (HT-29, 50 µM, 48 h, MTT) was 47.3%. Besides, in [2] (MCF7, 48 h, MTT, mean ± SD), the concentration for half-maximal inhibition (IC50) amounted to 9.16 ± 3.49 µM. For the same compound, the viability at 10 µM in data set [2] (MCF7, MCF-7, 10 µM, 48 h, MTT) amounted to 41%. In data set [2] (MCF7, MCF-7, 50 µM, 48 h, MTT), the viability at 50 µM turned out to be 42.8%. Further, in [2], the “SI (selectivity index) breast” value is reported as 1.20. For the same compound, the IC50 in data set [3] (184B5, 48 h, MTT, mean ± SD) is 11 ± 0.73 µM. Moreover, in [4] (0.03 mg/mL, time-point 0 min), the “DPPH radical scavenging kinetics” value is reported as “reaching the maximum activity at time-point 0′”. Moreover, the IC50 in data set [5] (HTB-54, 48 h, MTT, mean ± SD) is over 10 µM. For the same compound, in data set [5] (HTB-54, 10 µM, 48 h, MTT), the viability at 10 µM came to 51.1%. In addition, the viability at 50 µM in data set [5] (HTB-54, 50 µM, 48 h, MTT) was found to be 45.7%.

`Clc1ccc(NC(=[Se])NCc2nccs2)cc1` [Compound 2d]: the melting point came to 165 °C. In [6], this compound had a half-maximal inhibitory concentration (IC50) of 5.22 ± 0.07 µM. Besides, the IC50 in data set [1] (HT-29, 48 h, MTT, mean ± SD) is over 10 µM. In addition, the viability at 10 µM in data set [1] (HT-29, 10 µM, 48 h, MTT) came out at 77.2%. Further, the viability at 50 µM in data set [1] (HT-29, 50 µM, 48 h, MTT) was 67.1%. Moreover, the IC50 in data set [2] (MCF7, 48 h, MTT, mean ± SD) is over 10 µM. The viability at 10 µM in [2] (MCF7, MCF-7, 10 µM, 48 h, MTT) was determined as 59.7%. In addition, in data set [2] (MCF7, MCF-7, 50 µM, 48 h, MTT), the viability at 50 µM was found to be 35%. In [4] (at lower concentrations), the “DPPH radical scavenging capacity compared with ascorbic acid” value is “greater radical scavenging capacity than ascorbic acid”. Further, the IC50 in data set [5] (HTB-54, 48 h, MTT, mean ± SD) came out at 8.65 ± 0.29 µM. Besides, the viability at 10 µM in [5] (HTB-54, 10 µM, 48 h, MTT) was determined as 45.8%. Further, in [5] (HTB-54, 50 µM, 48 h, MTT), the viability at 50 µM amounted to 37.2%. For the same compound, the “SI (selectivity index) lung” value in data set [5] (IC50 (BEAS-2B)/IC50 (HTB-54)) is 0.60.

In the case of `CCCCNC(=[Se])Nc1ccccc1` [Compound 4a], the melting point was found to be 69 °C. The “stability of the compound before screening” value (“stability” for short) in [7] is “decomposed before screening”.

As for `CCCCNC(=[Se])Nc1ccc(C)cc1` [Compound 4b], the melting point came to 46 °C. In addition, the “stability” value in data set [7] was “decomposed before screening”.

As to `CCCCNC(=[Se])Nc1ccc(OC)cc1` [Compound 4c], the melting point was 89 °C. Further, the “stability” value in [7] is “decomposed before screening”.

Consider `CCCCCCNC(=[Se])Nc1ccccc1` [Compound 5a], for which the melting point stood at 59 °C. For the same compound, the “stability” value in [7] is “decomposed before screening”.

`CCCCCCNC(=[Se])Nc1ccc(C)cc1` [Compound 5b] registered a melting point of 88 °C. Further, in [7], the “stability” value was “decomposed before screening”.

Take `[Se]=C(Nc1ccccc1)NC12CC3CC(CC(C3)C1)C2` [Compound 6a, N´-adamantyl-N-(phenyl)selenourea]: the melting point came to 161 °C. Besides, the IC50 in the data set with HCT-116 cells (colon) was 5.69 ± 0.71 µM. Further, in data set [1] (HT-29, 48 h), the half-maximal inhibitory concentration (IC50) was found to be 5.03 ± 3.06 µM, the viability at 10 µM turned out to be 43% and the viability at 50 µM came to 33.9%. Further, in data set [8], the “ABTS radical scavenging activity compared with Trolox” value is reported as “significant lower radical scavenging activity than Trolox”. In [2] (MCF7, 48 h), the IC50 was determined as 9.88 ± 1.46 µM, the viability at 10 µM is 54.3% and the viability at 50 µM turned out to be 18.2%. Also, the “SI (selectivity index) breast” value in data set [2] was found to be 2.25. Moreover, in [3] (184B5, 48 h), the half-maximal inhibitory concentration (IC50) worked out at 22.2 ± 4.07 µM. In data set [5] (HTB-54, 48 h), the IC50 is over 10 µM, the viability at 10 µM is 51.9% and the viability at 50 µM turned out to be 15.7%.
